The values below come from patent publication US20190070128A1, “USE OF CANNABIDIVARIN IN THE TREATMENT OF AUTISM SPECTRUM DISORDER, ASSOCIATED DISORDERS AND SCHIZOPHRENIA” (GW Research Limited, priority 2016, published 2019).

The subject of one series is VPA-exposed rats. Nature of the series: sociability and preference for social novelty, 3-chamber apparatus, prenatal VPA model. It counts as in vivo, rat. As for the experimental part: Pregnant Sprague-Dawley rats (Charles River, Calco, Italy), received a single intraperitoneal injection of 500 mg/kg sodium valproate on the 12.5 day after conception, and control females were injected with physiological saline at the same time. Sodium valproate (Sigma Aldrich, Milan, IT) was dissolved in saline at a concentration of 250 mg/ml.
CBDV was dissolved in ethanol, cremophor and saline (1:1:18). Symptomatic treatment with CBDV at doses of 0.2, 2, 20, and 100 mg/kg/day i.p. was performed starting from PND 34 (early adolescence) till 56 (early adulthood), both in male and female offspring of dams injected with VPA 500 mg/kg (or vehicle) on day 12.5 after conception. At PND 56, a series of behavioural tests was performed in order to assess the effect of chronic CBDV on sociability, social novelty, short-term memory, locomotion and stereotyped/repetitive behaviours.
Sociability and preference for social novelty: These behaviours were investigated in a 3-chamber apparatus which allows for the measurement of social approach and social preference. In brief, animals were placed into a novel arena (80 cm×31.5 cm) composed of three communicating chambers separated by Perspex walls with central openings allowing access to all chambers for 5 min.
Following this acclimatisation period, animals were briefly confined to the central chamber while an unfamiliar rat confined in a small wire cage was placed in one of the outer chambers. An identical empty wire cage was placed in the other chamber. The unfamiliar rat was randomly assigned to either the right or left chamber of the arena. The test animal was then allowed to explore the arena/chambers for a further 5 min. Time spent engaging in investigatory behaviour with the rat was evaluated with the aid of Anymaze program (Ugo Basile, Italy) in order to examine social approach.
To investigate the preference for social novelty, a novel unfamiliar rat was then placed in the empty cage and the test animal was then allowed to explore the arena/chambers for a further 5 min. Time spent engaging in investigatory behaviour with the novel unfamiliar rat was evaluated with the aid of Anymaze program (Ugo Basile, Italy) in order to examine preference for social novelty.

A further series deals with MeCP2 KO mice. Nature of the series: survival of MeCP2 KO and WT mice. It counts as in vivo, mouse. The settings on record: for survival rate: vehicle 25%. How it is done: CBDV was administered daily at the dose of 2, 20 and 200 mg/kg i.p. starting from PND 28 and the following signs were scored every other day: hindlimb clasping (indication of motor imbalance), tremor, gait (measure of coordination), breathing, mobility and general condition.
The CBDV was dissolved in ethanol, cremophor and saline (1:1:18).
Starting from PND 28, mice received a daily intraperitoneal injection of CBDV (or vehicle) at the dose of 2, 20 and 200 mg/kg. Animals were then scored every other day to evaluate the effect of CBDV treatment on motor symptoms (hindlimb clasping, gait, mobility) as well as neurological signs and general conditions (breathing abnormalities, tremors and general condition) present in MeCP2 knockout (KO) mice.

A further series relates to Ube3am-/p+ (AS) mice. Description: novel object recognition in Angelman syndrome mice. It counts as in vivo, mouse. The settings on record: 20 mg/kg i.p., age 7-8 weeks, vs AS vehicle. As for the experimental part:
Heterozygous mice with maternal deficiency of Ube3A (Ube3am−/p+) and wild type (Ube3am+/p+) were purchased from The Jackson Laboratory (Jackson code: B6.12957-Ube3a tm1Alb/J) and maintained in a C57BL/6 background.
Drugs were dissolved in 1:1:18 ethanol:cremophor:0.9% saline, for intraperitoneal (i.p.) administration. Drug treatment was performed daily for 35 days. CBDV was administered at 20 mg/kg.
Novel Object Recognition: The novel object recognition assesses recognition memory in mice. The experiment started with the habituation period, during which mice were allowed to freely explore for 1 hour the apparatus which consists of a rectangular open box (40×30×30 cm width×length×height) made of grey polyvinyl chloride (PVC) illuminated by a dim light. The day after each mouse was allowed to explore two identical objects positioned in the back left and right corners for 5 min (acquisition). A video camera recorded the time spent on exploration of each object. […] The behaviour of mice was analyzed by an observer blind to the treatment. Data are expressed as percentage of recognition index (RI %), which was calculated as the percentage of the time spent exploring the novel object/time spent exploring the novel object+time spent exploring the familiar object×100.

The target in a further series is hCB1 (Homo sapiens, UniProt P21554). Further details: expressed in transfected cells; host or cells: CHO cells expressing hCB1 (membranes). The settings on record: hCB1-CHO cell membranes; extract compared with purified CBDV; cited from earlier work.
hCB1, sequence (P21554 whole entry): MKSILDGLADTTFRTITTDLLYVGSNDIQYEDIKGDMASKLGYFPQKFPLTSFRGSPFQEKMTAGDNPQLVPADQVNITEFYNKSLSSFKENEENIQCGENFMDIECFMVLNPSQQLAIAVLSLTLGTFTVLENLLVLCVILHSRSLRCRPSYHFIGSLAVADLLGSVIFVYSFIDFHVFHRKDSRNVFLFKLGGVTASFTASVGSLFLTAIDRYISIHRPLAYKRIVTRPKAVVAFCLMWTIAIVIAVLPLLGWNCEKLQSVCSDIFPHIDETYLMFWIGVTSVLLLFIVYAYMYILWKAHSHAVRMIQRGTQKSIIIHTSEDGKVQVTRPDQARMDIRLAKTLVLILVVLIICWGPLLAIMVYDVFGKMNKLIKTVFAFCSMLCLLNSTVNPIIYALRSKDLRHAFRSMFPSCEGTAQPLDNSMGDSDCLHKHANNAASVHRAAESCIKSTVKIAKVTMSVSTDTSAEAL

In the case of `C=C(C)[C@@H]1CCC(C)=C[C@H]1c1c(O)cc(CCC)cc1O` [CBDV, Cannabidivarin], the “deficit in social preference” value with VPA-exposed rats (20 mg/kg and 100 mg/kg) was “reversed”. Moreover, in the series on VPA-exposed rats (20 mg/kg/day i.p. PND 34-56, p<0.001 in males, p<0.01 in females), the “restoration of social novelty preference” value was “statistically significant effect”. Moreover, the “reduction of preference index in VPA-CBDV animals compared to controls” value with VPA-exposed rats (VPA alone about 48%) is given as “about 13%”. In the series on VPA-exposed rats (all doses (0.2, 2, 20, 100 mg/kg/day i.p.)), the impairment in sociability result is “significantly reduced”. Moreover, the survival rate in the series with MeCP2 KO mice (MeCP2 KO mice, 2 mg/kg) was determined as 62.5%; with MeCP2 KO mice (MeCP2 KO mice, 20 mg/kg) it was 62.5%; in the series with MeCP2 KO mice (MeCP2 KO mice, 200 mg/kg), 75%. Moreover, the “survival measured at PND 67” value with MeCP2 KO mice (MeCP2 KO mice, all three doses (2, 20, 200 mg/kg)) is “increase survival”. In addition, the lethality result in the series on MeCP2 KO mice (WT mice treated with CBDV) is “No lethality”. The discrimination index entry in the series on Ube3am-/p+ (AS) mice is on record as “significantly increased”. For the same compound, the “affinity for CB1 cannabinoid receptors” value at hCB1 is on record as “neither bound with high enough affinity”.
